Assay [1] deals with ubiquitinated proteins, Bax, p27, IκBα in Jurkat T cells. The experiment in a line: Western blot for ubiquitinated proteins and proteasome targets (Bax, p27, IκBα) in Jurkat T cells. Format: cell-based, human. As to conditions: 25 μM, 24 h. The method, then: (§1) Whole cells extracts were prepared as described previously (An B, Goldfarb R H, Siman R, Dou Q P. Novel dipeptidyl proteasome inhibitors overcome Bc1-2 protective function and selectively accumulate the cyclin-dependent kinase inhibitor p27 and induce apoptosis in transformed, but not normal, human fibroblasts. Cell Death Differ 1998; 5: 1062-75.). Analysis of Bax, IKBa, p27, PAW, and ubiquitinated protein expression were performed using monoclonal or polyclonal antibodies according to previously reported protocols (An B et. al.).
To determine what effects the synthetic tea analogs had on the proteasome in vivo, Jurkat cells were treated with 25 μM of each synthetic compound for either 4 or 24 h, with (−)-EGCG as a control (FIGS. 9A and 9B). […] This is consistent with the idea that protected analogs are potent inhibitors of the proteasome at an earlier time point and that after 24 h of treatment the ubiquitinated proteins are being depleted by deubiquitinating enzymes. […] The putative ubiquitinated IκBα band is still found in cells treated with 2a, 3a, and 4a (FIG. 9B, Lanes 9, 5, 7). The presumed ubiquinated IκBα band is now absent in the 24 h treatment, possibly due to deubiquitination (FIG. 9B). Actin was used as a loading control in this experiment.
The pro-apoptotic protein Bax and the cyclin-dependent kinase inhibitor p27 are natural proteasome targets. If the peracetate-protected polyphenols inhibit the intact proteasome activity, we would expect accumulation of Bax and p27 in these cells. To test this idea, Jurkat T cells were treated with both protected and unprotected compounds and lysates were analyzed by Western blot using specific antibodies to Bax and p27 (FIG. 15). After 4 h of treatment, the peracetate-protected analogs 24* and 19*, but not their unprotected analogs, were able to increase accumulation of both Bax (by 3- and 2.5-fold, respectively) and p27 (6- and 11-fold, respectively) (FIG. 15A). After 24 h treatment, Bax levels were increased in cells treated with all of the peracetate-protected compounds (13-, 12-, 40- and 36-fold, respectively, by 24*, 19*, 21* and 23*).

The test system of assay [2] is Jurkat T cells. In words: Trypan blue cell death assay in Jurkat T cells. In kind it is cell-based, human. As to conditions: 25 μM, 24 h.
For assay [3], the system named is Jurkat T cells. The experiment in a line: Western blot for PARP cleavage in Jurkat T cells. As to conditions: 25 μM, 24 h. In kind it is cell-based, human. Here is the method:
as §1
(§2) It has been shown that proteasome inhibition can induce apoptosis in a wide variety of cancer cells, but not in normal, non-transformed cells (An B et al). Jurkat T cells are treated with 25 μM of each of the selected polyphenols and their protected analogs for 24 h to investigate their abilities to induce apoptotic cell death. […] The unprotected 2 induced much less apoptosis (21%), while 25 μM VP-16, used as a positive control, induced 92% apoptosis (FIGS. 10C and 10D). Counterstain with DAPI, which binds to the minor groove in A-T rich regions of DNA, was decreased drastically in apoptotic cells (FIG. 10C), consistent with DNA fragmentation in late stage apoptosis.
To determine if the cell death observed (FIG. 16) was due to the induction of apoptosis, a similar experiment was performed in Jurkat T cells, followed by measurement of caspase-3 activation and PARP cleavage.
On the technique in general: Immunoblotting shows a protein as a band on a membrane.

The subject of assay [4] is VA-13 cells. In words: Immunostaining of apoptotic cells with anti-cleaved PARP-FITC. As to conditions: 25 μM, 24 h. Format: cell-based, human. Here is the method:
Immunostaining of apoptotic cells was performed by addition of a FITC-conjugated polyclonal antibody that recognizes cleaved poly(ADP-ribose) polymerase (PARP) and visualized on an Axiovert 2 5 (Zeiss; Thornwood, N.Y.) microscope. Cells were grown to about 80% confluency in 60 mm dishes. VA-13 cells were then treated with VP-16, 2, or 2a (25 μM) for 24 h. Following treatment, both suspension and adhering cells were collected and washed twice in PBS pH 7.4. The cells were washed between all steps listed below and all washes are 1 min duration with PBS. Cells were then fixed in ice-cold 70% ethanol, permeabilized in 0.1% Triton-X-100 and blocked for 30 min in 1% bovine serum albumin (BSA) at room temperature. Incubation with the primary FITC-conjugated-p85/PARP antibody was for 30 min at 4° C. in the dark with mild shaking. Cell suspension was then transferred to glass slides in the presence of Vector Shield mounting medium with DAPI. Images were captured using AxioVision 4.1 and adjusted using Adobe Photoshop 6.0 software. Cell death was quantified by counting the number of apoptotic cells over the total number of cells in the same field. Data are mean of duplicate experiments ±SD.
as §2

Another assay concerns MCF-7 cells. The experiment in a line: MTT assay. Format: cell-based, human. As to conditions: 24 h. Here is the method: MTT was used to determine effects of polyphenols on overall proliferation of tumor cells. Human breast MCF-7 cells were plated in a 96 well plate and grown to 70-80% confluency, followed by addition of analogs for 24 h. MTT (1 mg/ml) in PBS was then added to wells and incubated at 37° C. for 4 hours to allow for complete cleavage of the tetrazolium salt by metabolically active cells. Next, the MTT was removed and 100 μl of DMSO was added and colorimetric analysis performed using a multilabel plate reader at 560 nm (Victor^3; Perkin Elmer). Absorbance values plotted are the mean from triplicate experiments.
Treated breast cancer (MCF-7) cells were then treated with 5 or 25 μM of peracetate-protected analogs for 24 h, followed by MTT analysis to determine their effects on cell proliferation. Compound 1 at 25 μM inhibited cellular proliferation by 40% (FIG. 11A).
For orientation: Tetrazolium dyes change colour on reduction, which living cells bring about.

Assay [5] concerns LNCaP cells. In words: Apoptotic morphological changes, phase contrast. Format: cell-based, human. As to conditions: 25 μM, 24 h.
The test system of assay [6] is LNCaP cells. The experiment in a line: Soft agar colony formation assay. Format: cell-based, human. As to conditions: 25 μM once at plating, 21 days.
The subject of assay [7] is ubiquitin-conjugated proteins in LNCaP cells. The experiment in a line: Western blot for ubiquitin-conjugated proteins in LNCaP cells. As to conditions: 25 μM, 24 h. Format: cell-based, human. Here is the method: as §1
To determine if acetate-protected analogs are potent proteasome inhibitors in other cancer cell systems, prostate cancer LNCaP cells were treated for 24 h with 25 μM of (−)-EGCG, 1, 2a, or 3a, with DMSO as a control.

Assay [8] concerns the target T1, proteasome in VA-13 cells (Homo sapiens, UniProt P28074).
T1 construct: endogenous in cells; host or cells: VA-13 (SV40-transformed human fibroblasts)
In words: Chymotrypsin-like proteasome activity in intact VA-13 cells. Format: cell-based. The conditions noted are these: 25 μM, 24 h. Here is the method: VA-13 or WI-38 cells were grown in 24 well plates (2 ml/well) to 70-80% confluency, followed by 24 h treatment with […] (−)-EGCG, 2, or 2a. […] Suc-Leu-Leu-Val-Tyr-AMC substrate was then added for 2.5 h at 37° C. and the chyrnotrypsin-like activity was measured as described above. Alternatively, cells were treated with each compound at 25 μM for 4 or 24 h, and harvested and lysed. Suc-Leu-Leu-Val-Tyr-AMC (40 μM) was then incubated with the prepared cell lysates for 2.5 h and the chymotrypsin-like activity was measured as described above.
The ability to induce apoptosis in tumor cells, but not normal cells is an important measure for novel anti-cancer drugs. To determine whether the protected compounds also affect normal cells, both VA-13 and WI-38 cells were treated with 25 μM of (−)-EGCG, 2, or 2a for 24 h and examined proteasome activity, nuclear morphological changes, and detachment. A differential decrease was found in the chyrnotrypsin-like activity of the proteasome in VA-13 cells over normal WI-38 cells (FIG. 12A). […] Conversely, the proteasome activity in WI-38 cells was decreased by only −5% with all three polyphenol treatments.

Assay [9] has as its system VA-13 cells. In words: Nuclear staining (Hoechst) for apoptotic morphology, VA-13. Format: cell-based, human. As to conditions: 25 μM, 24 h. The method, then:
After each drug treatment, both detached and attached VA-13 and WI-38 cells were stained Hoechst 33342 to assess for apoptosis. Briefly, cells were washed 2× in PBS, fixed for 1 h with 70% ethanol at 4° C., washed 3× in PBS, and stained with […] Hoechst for 30 min in the dark at room temperature. Detached cells were plated on a slide and attached cells were visualized on the plate with a fluorescent microscope at 10× or 40× resolution (Zeiss, Germany). Digital Scientific obtained images with AxioVision 4.1 and adjusted using Adobe Photoshop 6.0.
Next, apoptotic nuclear morphology is examined after treatment with natural (−)-EGCG, 2, and 2a (FIG. 12B). […] A comparison among all the protected analogs was then performed using 25 μM for 24 h. […] All of the protected analogs induced apoptosis in transformed (VA-13), but not normal (WI-38) cells (FIGS. 12B and 12C).

A further assay has as its system YT cells. The experiment in a line: Western blot in non-transformed natural killer YT cells compared with Jurkat T cells. Format: cell-based, human. The conditions noted are these: 25 μM, 24 h.

With `CC(=O)Oc1cccc(C(=O)O[C@@H]2Cc3c(OC(C)=O)cc(OC(C)=O)cc3O[C@H]2c2cc(OC(C)=O)c(OC(C)=O)c(OC(C)=O)c2)c1` (relative stereo) [Compound 2a, (2S*,3R*)-trans-5,7-Bis(acetyloxy)-2-[3,4,5-tris(acetyloxy)phenyl]chroman-3-yl 3-acetyloxybenzoate], the “accumulation of p27” value in assay [1] is “Accumulation of p27”. Besides, in the assay on Jurkat T cells [2], the “cell death (trypan blue)” value is recorded as 99%. The “apoptosis-specific PARP cleavage” value with Jurkat T cells [3] was “induced apoptosis-specific PARP cleavage”. Also, in the assay with VA-13 cells [4], the “apoptotic cells (p85 cleaved PARP)” value is given as 73%. The “inhibition of cellular proliferation” value in the assay with MCF-7 cells (5 μM) was 50%; in the assay on MCF-7 cells (25 μM), 70%. Moreover, the apoptotic morphological changes entry with LNCaP cells [5] is “dramatic round-up, detachment, and cellular fragmentation”. In the assay on LNCaP cells [6], the “colony formation in soft agar” value is listed as “most potent inhibitors of colony formation”. The ubiquitin-conjugated proteins entry in [7] is recorded as “greatest increase”. Besides, in assay [8], the “decrease in proteasome chymotrypsin-like activity” value came out at 92%. For the same compound, the apoptotic nuclear morphology entry with VA-13 cells [9] was “markedly induced apoptosis”. Further, in the assay with YT cells, the “apoptosis (PARP cleavage), Jurkat T versus YT cells” value was “only Jurkat cells underwent apoptosis”.
On to `CC(=O)Oc1ccc(C(=O)O[C@@H]2Cc3c(OC(C)=O)cc(OC(C)=O)cc3O[C@H]2c2cc(OC(C)=O)c(OC(C)=O)c(OC(C)=O)c2)cc1` (relative stereo) [Compound 3a, (2S*,3R*)-trans-5,7-Bis(acetyloxy)-2-[3,4,5-tris(acetyloxy)phenyl]chroman-3-yl 4-(acetyloxy)benzoate], for which the “accumulation of p27” value in assay [1] was “Accumulation of p27”. Besides, the “cell death (trypan blue)” value with Jurkat T cells [2] is 57%. Further, in the assay on Jurkat T cells [3], the “apoptosis-specific PARP cleavage” value is on record as “induced apoptosis-specific PARP cleavage”. In addition, the figures for the “inhibition of cellular proliferation” value in the assay on MCF-7 cells (5 μM) and with MCF-7 cells (25 μM) were 50% and 70%, respectively. Further, the apoptotic morphological changes result in the assay with LNCaP cells [5] was “dramatic round-up, detachment, and cellular fragmentation”. The ubiquitin-conjugated proteins entry in [7] was “greatest increase”.

These data come from patent US8193377B2, “(−)-epigallocatechin gallate derivatives for inhibiting proteasome” (The Hong Kong Polytechnic University, priority 2004, dated 2012).
